Source: patent US20240317791A1 (priority 2021, published 2024)
Values after ≈ are worked out from the molar mass of the structure shown. Where two headings read alike, the source gives them in different places.

Assays:
Candida auris = assay: MIC determination against clinical isolates of Candida auris (CLSI M27, 4th edition); type: cell-based; conditions: Candidozyma auris, read-out: MIC values
Description: (§1) MIC: Minimum Inhibitory Concentration (MIC) is defined as the lowest concentration of an antimicrobial ingredient that is bacteriostatic.
(§2) Testing has been performed in triplicates for each isolate.

Microsporum spp. = conditions: 2 strains of Microsporum spp; cited from earlier work
Penicillium spp. = conditions: 5 strains of Penicillium spp.; cited from earlier work
Trichophyton spp. = conditions: 7 strains of Trichophyton spp.; cited from earlier work
Sporothrix schenkii = conditions: 1 strain of Sporothrix schenkii; cited from earlier work
Aspergillus spp. = conditions: 13 strains of Aspergillus spp.; cited from earlier work
Rhizopus oryzae [1] = conditions: 4 strains of Rhizopus oryzae; cited from earlier work
Rhizopus oryzae [2] = assay: MIC determination against clinical isolates of the order Mucorales (CLSI M27, 4th edition); type: cell-based; conditions: Rhizopus arrhizus, strain 2086, clinical strain
Description: as §1, §2

Rhizopus microsporus = assay: as above; type: cell-based
Description: as §1, §2

Mucor circinelloides = assay: MIC determination against ATCC and clinical isolates of the order Mucorales (CLSI M27, 4th edition); type: cell-based
Description: as §1, §2

[3] = rats, single intravenous administration; amcipatricin diascorbate 1.25 mg/kg, amphotericin B 1 mg/kg; cited from earlier work
[4] = strain I.2 (No 2), clade I/India
[5] = strain I.3 (No 3), clade I/India
[6] = strain I.4 (No 4), clade I/India
[7] = strain II.1 (No 5), clade II/Japan
[8] = strain II.2 (No 1), clade II/India
[9] = strain III.7 (No 12), clade III/Switzerland
[10] = strain III.8 (No 13), clade III/Israel
[11] = strain III.9 (No 14), clade III/Israel
[12] = strain IV.1 (No 15), clade IV/Colombia
[13] = strain IV.10 (No 7), clade IV/Israel
[14] = strain IV.11 (No 8), clade IV/Israel
[15] = strain IV.12 (No 9), clade IV/Israel
[16] = strain IV.13 (No 10), clade IV/Israel
[17] = strain IV.14 (No 11), clade IV/Israel
[18] = strain IV.2 (No 16), clade IV/Colombia
[19] = strain IV.3 (No 17), clade IV/Colombia
[20] = strain IV.4 (No 18), clade IV/Colombia
[21] = strain IV.5 (No 19), clade IV/Colombia
[22] = strain IV.6 (No 20), clade IV/Colombia
[23] = strain IV.7 (No 21), clade IV/Colombia
[24] = strain IV.8 (No 22), clade IV/Colombia
[25] = strain IV.9 (No 6), clade IV/Israel

## C[C@@H](c1ncncc1F)[C@](O)(Cn1cncn1)c1ccc(F)cc1F [Voriconazole]
Candida auris; [4]
  MIC: 1 µg/mL (≈ 2.86 µM)
Candida auris; [5]
  MIC: 2 µg/mL (≈ 5.73 µM)
Candida auris; [6]
  MIC: 1 µg/mL (≈ 2.86 µM)
Candida auris; [7]
  MIC: 0.0625 µg/mL (≈ 0.179 µM)
Candida auris; [8]
  MIC: 1 µg/mL (≈ 2.86 µM)
Candida auris; [9]
  MIC: 2 µg/mL (≈ 5.73 µM)
Candida auris; [10]
  MIC: 2 µg/mL (≈ 5.73 µM)
Candida auris; [11]
  MIC: 2 µg/mL (≈ 5.73 µM)
Candida auris; [12]
  MIC: 0.0625 µg/mL (≈ 0.179 µM)
Candida auris; [13]
  MIC: 0.5 µg/mL (≈ 1.43 µM)
Candida auris; [14]
  MIC: 0.5 µg/mL (≈ 1.43 µM)
Candida auris; [15]
  MIC: 1 µg/mL (≈ 2.86 µM)
Candida auris; [16]
  MIC: 0.5 µg/mL (≈ 1.43 µM)
Candida auris; [17]
  MIC: 1 µg/mL (≈ 2.86 µM)
Candida auris; [18]
  MIC: 1 µg/mL (≈ 2.86 µM)
Candida auris; [19]
  MIC: 1 µg/mL (≈ 2.86 µM)
Candida auris; [20]
  MIC: 0.5 µg/mL (≈ 1.43 µM)
Candida auris; [21]
  MIC: 0.5 µg/mL (≈ 1.43 µM)
Candida auris; [22]
  MIC: 0.5 µg/mL (≈ 1.43 µM)
Candida auris; [23]
  MIC: 8 µg/mL (≈ 22.9 µM)
Candida auris; [24]
  MIC: 8 µg/mL (≈ 22.9 µM)
Candida auris; [25]
  MIC: 1 µg/mL (≈ 2.86 µM)

## OC(Cn1cncn1)(Cn1cncn1)c1ccc(F)cc1F [Fluconazole]
Candida auris; [4]
  MIC: 1020 µg/mL (≈ 3340 µM)
Candida auris; [5]
  MIC: 1020 µg/mL (≈ 3340 µM)
Candida auris; [6]
  MIC: 1020 µg/mL (≈ 3340 µM)
Candida auris; [7]
  MIC: 4 µg/mL (≈ 13.1 µM)
Candida auris; [8]
  MIC: 32 µg/mL (≈ 104 µM)
Candida auris; [9]
  MIC: 1020 µg/mL (≈ 3340 µM)
Candida auris; [10]
  MIC: 512 µg/mL (≈ 1670 µM)
Candida auris; [11]
  MIC: 1020 µg/mL (≈ 3340 µM)
Candida auris; [12]
  MIC: 4 µg/mL (≈ 13.1 µM)
Candida auris; [13]
  MIC: 32 µg/mL (≈ 104 µM)
Candida auris; [14]
  MIC: 32 µg/mL (≈ 104 µM)
Candida auris; [15]
  MIC: 32 µg/mL (≈ 104 µM)
Candida auris; [16]
  MIC: 32 µg/mL (≈ 104 µM)
Candida auris; [17]
  MIC: 32 µg/mL (≈ 104 µM)
Candida auris; [18]
  MIC: 128 µg/mL (≈ 418 µM)
Candida auris; [19]
  MIC: 128 µg/mL (≈ 418 µM)
Candida auris; [20]
  MIC: 128 µg/mL (≈ 418 µM)
Candida auris; [21]
  MIC: 128 µg/mL (≈ 418 µM)
Candida auris; [22]
  MIC: 128 µg/mL (≈ 418 µM)
Candida auris; [23]
  MIC: 1020 µg/mL (≈ 3340 µM)
Candida auris; [24]
  MIC: 1020 µg/mL (≈ 3340 µM)
Candida auris; [25]
  MIC: 16 µg/mL (≈ 52.2 µM)

## C[C@@H]1[C@H](O)[C@@H](C)/C=C/C=C/C=C/C=C/C=C/C=C/C=C/[C@H](O[C@@H]2O[C@H](C)[C@@H](O)[C@H](N)[C@@H]2O)C[C@@H]2O[C@](O)(C[C@@H](O)C[C@@H](O)[C@H](O)CC[C@@H](O)C[C@@H](O)CC(=O)O[C@H]1C)C[C@H](O)[C@H]2C(=O)O [Amphotericin B]
Microsporum spp.
  geometric means of the minimum fungicidal concentration values compared to amcipatricin diascorbate: lower
Penicillium spp.
  geometric means of the minimum fungicidal concentrations: about 12 μg/mL
Trichophyton spp.
  geometric means of the minimum fungicidal concentration values compared to amcipatricin diascorbate: lower
Sporothrix schenkii
  MFC: 19.2 µg/mL (≈ 20.8 µM)
Aspergillus spp.
  geometric means of the minimum fungicidal concentrations: 12.53 µg/mL
Rhizopus oryzae [1]
  geometric means of the minimum fungicidal concentration values compared to amcipatricin diascorbate: lower
Candida auris; [4]
  MIC: 1 µg/mL (≈ 1.08 µM)
Candida auris; [5]
  MIC: 1 µg/mL (≈ 1.08 µM)
Candida auris; [6]
  MIC: 1 µg/mL (≈ 1.08 µM)
Candida auris; [7]
  MIC: 0.5 µg/mL (≈ 0.541 µM)
Candida auris; [8]
  MIC: 0.25 µg/mL (≈ 0.271 µM)
Candida auris; [9]
  MIC: 0.5 µg/mL (≈ 0.541 µM)
Candida auris; [10]
  MIC: 0.5 µg/mL (≈ 0.541 µM)
Candida auris; [11]
  MIC: 1 µg/mL (≈ 1.08 µM)
Candida auris; [12]
  MIC: 2 µg/mL (≈ 2.16 µM)
Candida auris; [13]
  MIC: 0.25 µg/mL (≈ 0.271 µM)
Candida auris; [14]
  MIC: 0.5 µg/mL (≈ 0.541 µM)
Candida auris; [15]
  MIC: 0.5 µg/mL (≈ 0.541 µM)
Candida auris; [16]
  MIC: 1 µg/mL (≈ 1.08 µM)
Candida auris; [17]
  MIC: 0.5 µg/mL (≈ 0.541 µM)
Candida auris; [18]
  MIC: 2 µg/mL (≈ 2.16 µM)
Candida auris; [19]
  MIC: 2 µg/mL (≈ 2.16 µM)
Candida auris; [20]
  MIC: 1 µg/mL (≈ 1.08 µM)
Candida auris; [21]
  MIC: 1 µg/mL (≈ 1.08 µM)
Candida auris; [22]
  MIC: 1 µg/mL (≈ 1.08 µM)
Candida auris; [23]
  MIC: 1 µg/mL (≈ 1.08 µM)
Candida auris; [24]
  MIC: 1 µg/mL (≈ 1.08 µM)
Candida auris; [25]
  MIC: 0.5 µg/mL (≈ 0.541 µM)
Rhizopus oryzae [2]
  MIC: 1 µg/mL (≈ 1.08 µM)
Rhizopus microsporus; strain 3315, clinical strain
  MIC: 0.25 µg/mL (≈ 0.271 µM)
Rhizopus microsporus; strain 3435, clinical strain
  MIC: 0.5 µg/mL (≈ 0.541 µM)
Mucor circinelloides; ATCC24905, strain ATCC 24905, ATCC strain
  MIC: 0.25 µg/mL (≈ 0.271 µM)
Mucor circinelloides; strain 2109, clinical strain
  MIC: 0.5 µg/mL (≈ 0.541 µM)
Mucor circinelloides; strain 2707, clinical strain
  MIC: 0.25 µg/mL (≈ 0.271 µM)
Mucor circinelloides; strain 4280, clinical strain
  MIC: 1 µg/mL (≈ 1.08 µM)
[3]
  area under the curve to infinity (AUC(0-∞)): 10330 ng·h/mL
  elimination half-lives: 18.15 h
